In patent US20250353841A1 (BIOGEN MA INC., priority 2022, published 2025) one finds IC50 data, which are given here for 25 compounds.

What is called IC50 is the midpoint of a concentration-inhibition curve. Low values mean greater potency in that assay, high ones weaker potency in that assay.

The assay deals with mutant Huntington (HTT) protein. Nature of the assay: HTT Mutant HTRF iPSC assay (mHTT protein lowering). The class given is cell-based. Particulars: human iPSC derived from a HTT patient with a poly-Q49 mutation. (In general: In TR-FRET formats the signal depends on donor and acceptor labels being close together.)

For the compound `Cn1nc2ccc(-c3cc(F)c4[nH]c(C5CCNCC5)nc4c3)cc2n1` [Compound 146, 5-(7-fluoro-2-(piperidin-4-yl)-1H-benzo[d]imidazol-5-yl)-2-methyl-2H-benzo[d][1,2,3]triazole], the IC50 is 1000 to 9000 nM.
For `Cc1cn2nc(-c3cc(F)c4nc(C(=O)NC5CN(CC6CC6)C5)cn4c3)cc(C)c2n1` [Compound 339, N-[1-(cyclopropylmethyl)azetidin-3-yl]-6-(2,8-dimethylimidazo[1,2-b]pyridazin-6-yl)-8-fluoro-imidazo[1,2-a]pyridine-2-carboxamide], the IC50 is under 100 nM.
With `Cc1cn2nc(-c3cc(F)c4nn(C5CCNCC5)nc4c3)ccc2n1` [Compound 384, 4-fluoro-6-(2-methylimidazo[1,2-b]pyridazin-6-yl)-2-(piperidin-4-yl)-2H-benzo[d][1,2,3]triazole] the figure was 100 to 1000 nM; with `COCCN1CCC(c2cn3cc(-c4cc5c(C)nc(C)cn5n4)cc(F)c3n2)CC1` [Compound 221, 2-(8-fluoro-2-(1-(2-methoxyethyl)piperidin-4-yl)imidazo[1,2-a]pyridin-6-yl)-4,6-dimethylpyrazolo[1,5-a]pyrazine], under 100 nM; with `CCN1CCC(c2cc(F)c3nc(-c4cc(C)c5nc(C)cn5n4)cn3c2)CC1` [Compound 132], 1000 to 9000 nM.
The compound `Cc1cn2nc(-c3cc(F)c4nn(C5C[C@@H](C)N[C@H](C)C5)nc4c3)cc(C)c2n1` (relative stereo) [Compound 393, 6-(2,8-dimethylimidazo[1,2-b]pyridazin-6-yl)-2-((2R,6R)-2,6-dimethylpiperidin-4-yl)-4-fluoro-2H-benzo[d][1,2,3]triazole] came in with an IC50 of 100 to 1000 nM.
Turning to `Cc1cn2nc(-c3cc(F)c4nc(NC(=O)C5CNCC5(C)C)nn4c3)cc(C)c2n1` (stereo not shown) [Compound 319, N-(6-(2,8-dimethylimidazo[1,2-b]pyridazin-6-yl)-8-fluoro-[1,2,4]triazolo[1,5-a]pyridin-2-yl)-4,4-dimethylpyrrolidine-3-carboxamide], the IC50 was in the range of 1000 to 9000 nM.
The result for `Cc1cc(-c2cc(F)c3nn(C4CCNCC4)nc3c2)nc2cn(C)nc12` [Compound 381, 6-(2,7-dimethyl-2H-pyrazolo[4,3-b]pyridin-5-yl)-4-fluoro-2-(piperidin-4-yl)-2H-benzo[d][1,2,3]triazole] reads 100 to 1000 nM; that for `Cc1cn2nc(-c3cc(F)c4nc([C@H]5[C@@H]6CN(C)C[C@@H]65)cn4c3)cc2c(C)n1` [Compound 222, 2-(8-fluoro-2-((1R,5S,6r)-3-methyl-3-azabicyclo[3.1.0]hexan-6-yl)imidazo[1,2-a]pyridin-6-yl)-4,6-dimethylpyrazolo[1,5-a]pyrazine], under 100 nM; that for `Cc1nc2c(F)cc(-c3cc(F)c4nc(C5CCNCC5)cn4c3)cc2o1` [Compound 82, 4-fluoro-6-(8-fluoro-2-(piperidin-4-yl)imidazo[1,2-a]pyridin-6-yl)-2-methylbenzo[d]oxazole], under 100 nM.
With `Cc1cn2nc(-c3cc(F)c4nc(C56CC(N(C)C7CC7)(C5)C6)cn4c3)cc(C)c2n1` [Compound 208, N-cyclopropyl-3-(6-(2,8-dimethylimidazo[1,2-b]pyridazin-6-yl)-8-fluoroimidazo[1,2-a]pyridin-2-yl)-N-methylbicyclo[1.1.1] pentan-1-amine] the figure was 100 to 1000 nM.
The result for `Cc1cn2nc(-c3cc(F)c4nc([C@H]5[C@@H]6CN(CC7CC7)C[C@@H]65)cn4c3)cc(C)c2n1` [Compound 212, 6-(2-((1R,5S,6r)-3-(cyclopropylmethyl)-3-azabicyclo[3.1.0]hexan-6-yl)-8-fluoroimidazo[1,2-a]pyridin-6-yl)-2,8-dimethylimidazo[1,2-b]pyridazine] reads under 100 nM.
As to `Fc1cc(-c2ccc3nonc3c2)cn2cc(C3CCNCC3)nc12` [Compound 51, 5-(8-fluoro-2-(piperidin-4-yl)imidazo[1,2-a]pyridin-6-yl)benzo[c][1,2,5]oxadiazole], the IC50 fell in the range of 1000 to 9000 nM.
`Cc1cc(-c2cc(F)c3nn(C4CCNCC4)cc3c2)cc2cn(C)nc12` [Compound 351, 7-fluoro-2′,7′-dimethyl-2-(piperidin-4-yl)-2H,2′H-5,5′-biindazole] had an IC50 of 100 to 1000 nM.
With `Cc1cn2nc(-c3cc(F)c4nc([C@H]5[C@@H]6CNC[C@@H]65)nn4c3)cc(C)c2n1` [Compound 443, 2-[(1R,5S)-3-azabicyclo[3.1.0]hexan-6-yl]-6-(2,8-dimethylimidazo[1,2-b]pyridazin-6-yl)-8-fluoro-[1,2,4]triazolo[1,5-a]pyridine] the figure was under 100 nM; with `Fc1cc(-c2ccc3nn(C(F)F)cc3c2)cn2cc(C3CCNCC3)nc12` [Compound 36, 2-(difluoromethyl)-5-(8-fluoro-2-(piperidin-4-yl)imidazo[1,2-a]pyridin-6-yl)-2H-indazole], 1000 to 9000 nM.
With `Fc1cc(-c2cc3ccc(Cl)cc3o2)cn2cc(C3CCNCC3)nc12` [Compound 39, 6-(6-chlorobenzofuran-2-yl)-8-fluoro-2-(piperidin-4-yl)imidazo[1,2-a]pyridine] the figure was 1000 to 9000 nM; with `COCCN1CCC(c2cn3cc(-c4cc(C)c5nc(C)cn5n4)cc(F)c3n2)CC1` [Compound 46, 6-[8-fluoro-2-[1-(2-methoxyethyl)-4-piperidyl]imidazo[1,2-a]pyridin-6-yl]-2,8-dimethyl-imidazo[1,2-b]pyridazine], under 100 nM.
With `Cc1n[nH]c2ccc(-c3cc(F)c4nc(C5CCNCC5)cn4c3)cc12` [Compound 53, 5-(8-fluoro-2-(piperidin-4-yl)imidazo[1,2-a]pyridin-6-yl)-3-methyl-1H-indazole] the figure was 1000 to 9000 nM.
`Cn1cc2cc(-c3cc(F)c4nc(C56CNC(C5)C6)cn4c3)cc(F)c2n1` [Compound 67] yielded an IC50 of 1000 to 9000 nM.
The result for `Cc1cn2nc(-c3cn4cc(C5CCN(C)CC5)cc(F)c4n3)cc(C)c2n1` [Compound 133, 6-[8-fluoro-6-(1-methyl-4-piperidyl)imidazo[1,2-a]pyridin-2-yl]-2,8-dimethyl-imidazo[1,2-b]pyridazine] reads 1000 to 9000 nM; that for `COc1cc(-c2cc(C(F)F)c3nc(C)cn3n2)cn2cc([C@H]3[C@@H]4CN(C)C[C@@H]43)nc12` [Compound 540, 8-(difluoromethyl)-6-[8-methoxy-2-[3-methyl-3-azabicyclo[3.1.0]hexan-6-yl]imidazo[1,2-a]pyridin-6-yl]-2-methyl-imidazo[1,2-b]pyridazine], under 100 nM.
With `Cc1cn2nc(-c3cc(F)c4nc(C5CCC(N(C)C)CC5)cn4c3)cc(C)c2n1` (stereo not shown) [Compound 168, 4-(6-(2,8-dimethylimidazo[1,2-b]pyridazin-6-yl)-8-fluoroimidazo[1,2-a]pyridin-2-yl)-N,N-dimethylcyclohexan-1-amine] the figure was under 100 nM; with `CCN1CCC(c2cn3cc(-c4ccc5nc(C)cn5c4)cc(F)c3n2)CC1` [Compound 8, 2-(1-ethylpiperidin-4-yl)-8-fluoro-2′-methyl-6,6′-biimidazo[1,2-a]pyridine], 1000 to 9000 nM; with `O=C1Cc2cc(-c3cc(F)c4nc(C5CCNCC5)cn4c3)cc(F)c2N1` [Compound 57, 7-fluoro-5-(8-fluoro-2-(piperidin-4-yl)imidazo[1,2-a]pyridin-6-yl)indolin-2-one], 1000 to 9000 nM.
